Data on 2 compounds can be found in ChEMBL document CHEMBL1127314, “A new potent and selective histamine H3 receptor agonist, 4-(1H-imidazol-4-ylmethyl)piperidine” (J Med Chem, 1994).

A short description of data set [1]: pD2 value was determined on jejunum preparations of eight different animals. In kind it is ADME, tissue-based.
The target of data set [2] is Histamine H3 receptor (Cavia porcellus) (UniProt Q9JI35). The data set can be described thus: H3 receptor agonistic activity of the compound. In kind it is functional.
Sequence of Histamine H3 receptor (Cavia porcellus) (Q9JI35 whole entry): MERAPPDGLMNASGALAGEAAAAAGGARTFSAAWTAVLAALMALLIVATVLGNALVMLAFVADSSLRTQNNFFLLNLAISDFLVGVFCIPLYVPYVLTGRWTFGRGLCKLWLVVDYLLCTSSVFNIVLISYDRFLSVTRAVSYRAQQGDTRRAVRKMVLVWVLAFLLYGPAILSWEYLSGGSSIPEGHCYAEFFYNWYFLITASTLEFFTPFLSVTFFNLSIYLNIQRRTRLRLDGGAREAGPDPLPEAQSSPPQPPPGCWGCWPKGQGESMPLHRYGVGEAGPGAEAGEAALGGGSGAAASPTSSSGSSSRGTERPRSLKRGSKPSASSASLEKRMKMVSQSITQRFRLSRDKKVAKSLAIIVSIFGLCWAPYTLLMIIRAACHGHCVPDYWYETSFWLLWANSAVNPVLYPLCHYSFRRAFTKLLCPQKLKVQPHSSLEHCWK
Data set [3] has the same target. The data set can be described thus: KL value determined on H3 receptor.
A short description of data set [4]: pKi log value determined for the guinea pig H1 receptor. In kind it is ADME.

As for `C[C@@H](N)Cc1c[nH]cn1`, the pD2 in data set [1] was 7.8. For the same compound, the KH in data set [2] was found to be 4.3 nM. The compound further gave a KL in data set [3] of 0.22 µM.

On to `c1nc(CC2CCNCC2)c[nH]1` [IMMEPIP], for which, in data set [4], the “Log Ki” value is given as -4.79. The pD2 in data set [1] turned out to be 8. For the same compound, the KH in data set [2] stood at 2.7 nM. In data set [3], this compound gave a KL of 1.01 µM.
